Legend:
[1] = tested on: neovascularization induced by VEGF in chicken chorioallantoic membrane (CAM); experiment: chorioallantoic membrane (CAM) assay, VEGF-induced angiogenesis; format: in vivo
Procedure: To examine angiogenesis inhibitory effects in vivo, a chorioallantoic membrane (CAM) assay was carried out (Nguyen M et al., Microvascular Res., 47, pp 31-40, 1994).
Fertilized chicken eggs were cultured keeping the temperature at 37° C. and the relative humidity at 55%. On the tenth day, the first small hole was made in the region of air sac and the second hole was dug in the flat region of egg, where a window was to be made, using a hypodermic needle (Greencross Medical Science, Korea).
Each egg was deflated through the first hole in the region of the air sac so that the chorioallantoic membrane (CAM) was split from the egg shell. Subsequently, a window was made by cutting this region using a grinding wheel (Multipro 395JA, Dremel, Mexico).
Then, a whatman filter disc #1 (Whatman Inc. USA) was treated with 3 mg/ml of cortisone acetate and dried. The filter disc was drenched with a vascular endothelial growth factor (VEGF) in a concentration of 20 ng/CAM.
The filter disc was put on the vessels through the previously made window, and a compound 12 of Example was dissolved in dimethylsulfoxide (DMSO) and diluted with phosphate buffered saline (PBS) to treat by concentrations.
After 3 days from the drug treatment, the CAMs, on which the filter disc was placed, were separated and washed with PBS to take images using a stereomicroscope (Stemi SV6 stereomicroscope, Carl Zeiss, Germany) and Image-Pro Plus software (Media Cybernetics; Silver Spring, Md., USA). Then, the number of branches was counted and the result data were analyzed.

HUVEC cells [2] = experiment: VEGF-induced growth inhibitory effect in HUVEC cells (MTT); format: cell-based, human; conditions: 24 hours, MTT (FIG. 3)
Procedure: HUVEC cells were cultured in a flask coated with 0.2% gelatin. Then, the HUVEC cells were cultured in an endothelial cell basal medium-2 (EBM-2, Clonetics, San Diego, Calif.). This EBM-2 contained fetal bovine serum (FBS), hydrocortisone, a human basic fibroblast growth factor (hFGF-B), a vascular endothelial growth factor (VEGF), a human recombinant insulin-like growth factor (R3-IGF-1), ascorbic acid, a human epidermal growth factor (hEGF), GA-1000, and heparin. The HUVEC cells were cultured for 4 to 5 days and injected into a 24-well plate in a density of 5×10^4 cells/well, and the media of the respective wells were set at 1 ml. In order to test the effect of the compound 12 in endothelial cells induced by the VEGF, the HUVEC cells were treated with a mixture of the VEGF and the compound 12 and cultured for 24 hours, and, then, 100 μl of MTT 3-(4,5-dimethylthiazol-2-yl)-2,5-diphenyl tetrazolium bromide; 5 g MTT/l in H2O) was added thereto and further cultured for 4 hours. Then, 200 μl of dimethylsulfoxide (DMSO) was added to the respective wells containing the corresponding cells and mixed with a pipette to dissolve the reduced MTT crystals. Relative cell survival rates were measured by scanning with a microplate reader (Molecular Devices, Menlo Park, Calif.) having 540 nm filter.

[3] = tested on: adult retinal pigment epithelium (ARPE)-19 cell line; experiment: ROS scavenging effect in ARPE-19 cell line (4-HNE or angiotensin II); format: cell-based, human
Procedure: (§1) In order to measure an ROS scavenging effect in HUVEC cells induced by a VEGF, 2′,7′-dichlorofluorescein diacetate (DCF-DA) was used. […] The HUVEC cells were injected into 8-well plates coated with 0.2% gelatin in a density of 1×10^5 cells/well and then cultured for 24 hours. A pre-treatment was carried out to the compound 12 for 3 hours and induced by the VEGF for 15 minutes and washed with PBS (pH 7.4) three times. Then, 10 μM DCF-DA was put into an EBM-2 and used to treat in darkroom for 30 minutes, and then washed again with the PBS three times. A fluorescence degree of the cells was measured using a fluorescence microscope. FIG. 5 provides photomicrographs taken at a magnification of 400 times of cells in order to check an ROS scavenging effect of the compound 12 of the present invention. […] FIG. 6 and FIG. 7 illustrate an observation result of the ROS scavenging effect of the compound 12 by treating the adult retinal pigment epithelium (ARPE)-19 cell line with 4-hydroxynonenal (4-HNE) or angiotensin II, which is a risk factor of macular degeneration. […] The 4-hydroxynonenal (4-HNE) or angiotensin II, which is a risk factor of macular degeneration caused cell damage by generation of ROS in ARPE cell and caused damage of a Bruch's membrane and angiogenesis, resulting in macular degeneration and loss of eyesight.

HUVEC cells [4] = experiment: chemostatic migration / infiltration inhibitory effect in HUVEC cells; format: cell-based, human; conditions: 1, 3, 10 μM, 24 hours, matrigel/collagen coated filter (FIG. 4)
Procedure: In order to examine a chemostatic migration inhibitory effect of the compound of the present invention, the following in vitro experiment was carried out using HUVEC cells (Mi-Sung Kim et al., Cancer Research, 63, 5454-5461, 2003; Sang-Oh Yoon et al., The Journal of Biological Chemistry, 276, 20085-20092, 2001; Sonia Zorzet et al., The Journal of Pharmacology and Experimental Therapeutics, 295, 927-933, 2000). A culture plate applied hereto was a 24-well plate (Corning Costar, Cambridge, Mass.) including a polycarbonate filter having a plurality of pores of […] in size. The bottom side of the polycarbonate filter was coated with 20 l of type I collagen in a concentration of 0.5 mg/ml, and the top side thereof was coated with 20 l of matrigel (BD Bioscience, Bedford, Mass.) in a concentration of 1.5 mg/ml. Here, the lower region of the polycarbonate filter was filled with a medium including 2% FBS, and the HUVEC cells were inoculated into the upper region of the polycarbonate filter. In this case, the compound 12 was dissolved in dimethyl sulfoxide (DMSO) and diluted with phosphate buffered saline (PBS) by concentrations (1, 3, 10 μM). The HUVEC cells inoculated as such were cultured at 37° C. for 24 hours. Subsequently, the cells infiltrating the bottom side of the polycarbonate filter were fixed with methanol and stained with hematoxylin and eosin. […]

HUVEC cells [5] = experiment: ROS scavenging effect in VEGF-induced HUVEC cells (DCF-DA); format: cell-based, human; conditions: 3 hours pre-treatment, VEGF 15 minutes, compared with the VEGF (FIG. 5)
Procedure: as §1

[6] = single oral dose toxicity experiment in mice; format: in vivo; conditions: single oral dose 0.5, 1 and 2 g/kg, 7 days
Procedure: The compound 12 was suspended in a 0.5% methyl cellulose solution and orally administered to male Balb/c mice with a single dose of 0.5 g/kg, 1 g/kg, and 2 g/kg. Then, the survival rate and weights of the mice were checked for 7 days.
After the administration, whether the animal was dead or not, clinical symptoms, changes in weight were observed, and a hematological test and a blood chemical test were carried out.

A549 lung cancer cells = experiment: angiogenesis caused by tumorigenesis and tumor growth, A549 cells inoculated to CAM; format: in vivo, chicken; conditions: A549 cells 1.5×10^6 cells/CAM, 5 days after inoculation (FIG. 8)
Procedure: FIG. 8 illustrates an observation result of angiogenesis caused by tumorigenesis by inoculating A549 lung cancer cells to a CAM and a tumor growth inhibitory effect. Fertilized chicken eggs were cultured, and on the ninth day, a window was made in the same manner, and instead of a disc, cancer cells were mixed with matrigel at a ratio of 1:1 and treated with the compound 12 and inoculated in a density of 1.5×10^6 cells/CAM. After 5 days from the inoculation, a CAM portion, in which tumor was formed, was separated and washed with PBS to take images using a stereomicroscope (Stemi SV6 stereomicroscope, Carl Zeiss, Germany) and Image-Pro Plus software (Media Cybernetics; Silver Spring, Md., USA). Then, the number of branches was counted and the result data were analyzed.

[7] = VEGF 20 ng/CAM + 1 μg/CAM, 3 days after treatment
[8] = VEGF 20 ng/CAM + 3 ng/CAM, 0.7 μM
[9] = VEGF 20 ng/CAM + 100 ng/CAM, 23 μM

SMILES: CN(C)c1ccc(/C=C2\C(=O)Nc3ccccc32)cc1 [SU4312]
- Inhibition rate (%) [1, 7]: 74.6 ± 12.1%
- Number of branches/Main vessel [1, 7]: 24 ± 4.6

SMILES: Cc1c(C)c2c(c(C)c1O)CC[C@@](C)(CCC[C@H](C)CCC[C@H](C)CCCC(C)C)O2 [α-tocopherol]
- Inhibition rate (%) [1, 8]: 45.1 ± 9.3%
- Number of branches/Main vessel [1, 8]: 32.3 ± 3.5
- Inhibition rate (%) [1, 9]: 64.4 ± 14.2%
- Number of branches/Main vessel [1, 9]: 24.3 ± 2.7

SMILES: Cc1nc2c(c(C)c1O)CC(C)(CCC[C@H](C)CCC[C@H](C)CCCC(C)C)N2C (stereo partly shown) [Compound 12]
- VEGF-induced cell growth (HUVEC cells [2]): reduced VEGF-induced cell growth in a concentration-dependent manner
- fluorescence degree of the cells (ROS) ([3]; ARPE-19 treated with 4-hydroxynonenal (4-HNE), compared with control group (FIG. 7)): remarkably decreased as compared with the control group
- fluorescence degree of the cells (ROS) ([3]; ARPE-19 treated with angiotensin II, compared with control group (FIG. 6)): remarkably decreased as compared with the control group
- infiltration of the HUVEC cells (HUVEC cells [4]): reduced infiltration of the HUVEC cells in a concentration-dependent manner
- fluorescence degree of the cells (ROS, DCF-DA) (HUVEC cells [5]): remarkably decreased as compared with the VEGF
- increase in neovascularization induced by the VEGF ([1]; CAM, VEGF 20 ng/CAM): decreased in a concentration-dependent manner
- inhibition at 0.001 µM ([1]; Gallus gallus, VEGF 20 ng/CAM + 0.004 ng/CAM, 1 nM, read-out: Inhibition rate (%)): 64 ± 12.5%
- inhibition at 0.01 µM ([1]; Gallus gallus, VEGF 20 ng/CAM + 0.04 ng/CAM, 10 nM, read-out: Inhibition rate (%)): 71.4 ± 6.4%
- IC50 ([1]; Gallus gallus, VEGF-induced angiogenesis, treated by concentrations (FIG. 2)): 0.7 nM
- Number of branches/Main vessel ([1]; VEGF 20 ng/CAM + 0.004 ng/CAM, 1 nM): 28 ± 4.7
- Number of branches/Main vessel ([1]; VEGF 20 ng/CAM + 0.04 ng/CAM, 10 nM): 25.2 ± 2.4
- clinical symptoms [6]: any especially remarkable clinical symptoms were not observed
- angiogenesis caused by tumorigenesis (A549 lung cancer cells): inhibited angiogenesis caused by tumorigenesis
- tumor growth (A549 lung cancer cells): inhibited tumor growth in a significantly low concentration as compared with α-tocopherol

SMILES: CNC(=O)[C@H](Cc1ccccc1)NC(=O)[C@H](CC(C)C)[C@H](CSc1cccs1)C(=O)NO [Batimastat]
- Inhibition rate (%) [1, 7]: 78.4 ± 7.4%
- Number of branches/Main vessel [1, 7]: 19.9 ± 2.87

From patent publication US20150031890A1, “PHARMACEUTICAL COMPOSITION COMPRISING BICYCLIC PYRIDINOL DERIVATIVES FOR PREVENTING OR TREATING DISEASES CAUSED BY ANGIOGENESIS” (Research Cooperation Foundation of Yeungnam University, priority 2011, published 2015)
